Laboratory results taken from article PMC8792425 (Redox Biology, 2022).

Biological target: T1, citrate synthase (CS) (Homo sapiens, UniProt O75390)
T1 sequence (O75390 28-466): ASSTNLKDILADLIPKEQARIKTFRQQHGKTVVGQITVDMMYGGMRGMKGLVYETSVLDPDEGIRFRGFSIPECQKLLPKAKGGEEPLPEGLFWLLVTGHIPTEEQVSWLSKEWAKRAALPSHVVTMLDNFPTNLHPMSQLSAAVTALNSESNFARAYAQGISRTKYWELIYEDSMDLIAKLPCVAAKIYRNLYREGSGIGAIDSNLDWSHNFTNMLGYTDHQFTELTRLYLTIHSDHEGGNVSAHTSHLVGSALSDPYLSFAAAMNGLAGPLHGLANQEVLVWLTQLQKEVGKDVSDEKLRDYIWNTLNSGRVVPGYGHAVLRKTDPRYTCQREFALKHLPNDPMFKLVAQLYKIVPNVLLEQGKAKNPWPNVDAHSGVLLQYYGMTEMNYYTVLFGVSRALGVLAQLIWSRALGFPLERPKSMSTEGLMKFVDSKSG
Assay: DTNB-CoA absorbance at […] nm
Format: biochemical

| SMILES | DTNB-CoA absorbance at 412 nm (with oxaloacetate and DTNB) | DTNB-CoA absorbance at 412 nm (with acetyl CoA and DTNB) |
| --- | --- | --- |
| CC(=O)SCCNC(=O)CCNC(=O)[C@H](O)C(C)(C)COP(=O)(O)OP(=O)(O)OC[C@H]1O[C@@H](n2cnc3c(N)ncnc32)[C@H](O)[C@@H]1OP(=O)(O)O [acetyl CoA] | oxaloacetate, acetyl CoA, and DTNB were incubated with protein lysates | – |
| O=C(O)CC(=O)C(=O)O [oxaloacetate] | – | oxaloacetate, acetyl CoA, and DTNB were incubated with protein lysates |
